Reference: PMC6591174, “The beneficial androgenic action of steroidal aromatase inactivators in estrogen-dependent breast cancer after failure of nonsteroidal drugs” (Cell Death & Disease, 2019)

Key:
Assay type in all cases: cell-based, human
MCF-7 cells = assay: Cell proliferation assay (CCK8), MCF-7; settings: for proliferation of MCF-7 cells: 1 nM-10 μM, 6 days, 10% PRF-CT with 1 nM E2; for antiproliferative effect in presence of OH-Flutamide, MCF-7: 100 nM compound with 100 nM OH-Flutamide
Protocol: (§1) Fig. 2 Proliferative response of cancer cells to indicated compounds. a–c the effect of concentrations of different compounds on the growth of the cells. […] Cell growth was measured as described in the “Materials and methods”. The proliferation of cells is expressed as the ratio of the cells compared with the control wells (untreated cells). d, e Influence of different compounds on the cell cycle of MCF-7 cells. MCF-7 cells were cultured in 10% PRF-CT with E2 (1 nM) for 3 days before plating. Cells were seeded in six-well plates and, the next day, starved in PRF for 24 h. Cells were exposed to different compounds at a concentration of 100 nM for 72 h, and then subjected to cell-cycle analysis as described in “Materials and methods”. f MCF-7 cells on poly-L-lysine-coated glass coverslips were exposed to compounds (100 nM) in 10% PRF-CT with 1 nM E2 for 72 h. Control cells were treated with vehicle. DAPI stains DNA, and the secondary anti-mouse antibody to detect the antibody bound to Ki-67 is labeled with the cyanine dye Cy3. The cells were stained with DAPI (blue). Immunofluorescence staining of Ki-67 of cells was observed using fluorescence microscope. Red: Ki-67; blue: nucleus.Typical image is shown. Scale bars: 10 μm. Data represent a mean ± SEM of three independent experiments, each in triplicate; bars, SEM. *P ≤ 0.05 vs. control
(§2) After 24 h, cells were exposed for 3–6 days to various concentrations of compounds (1 nM– 10 μM) or left untreated. The incubation time and the compounds concentrations were chosen based on previous studies[17],[32]–[34]. The effects of the various drugs on cell proliferation at the indicated concentrations (1 nM– 10 μM) were determined by using a CCK8 kit (Dojindo Laboratories, Kumamoto, Japan) according to the manufacturer’s protocol. The absorbance at 450 nm was measured by using a Versamax microplate reader (Thermo Varioskan Flash, USA). Cell growth is expressed as the ratio of the cells compared with the control wells (untreated cells).

ZR-75-1 cells = assay: Cell proliferation assay (CCK8), ZR-75-1; settings: for proliferation of ZR-75-1 cells: 1 nM-10 μM, 6 days, 10% PRF-CT with 1 nM E2; for antiproliferative effect in presence of OH-Flutamide, ZR-75-1: 100 nM compound with 100 nM OH-Flutamide
Protocol: as §1, §2

[1] = tested on: CCND1 promoter in MCF-7 cells; assay: ChIP-qPCR on the CCND1 promoter; settings: 10^-7 M, 2 h
Protocol: Fig. 7 The effect of activated AR on CCND1 expression by changing histone modifications of its promoter. The experimental protocol was as described in “Materials and methods”. a and b The expression of the cyclin D1 protein. Blots were also probed for tubulin (bottom) to verify equal amounts of protein loaded in each lane. The densitometric evaluation is calculated by ImageJ. c The abundance of cyclin D1 mRNA has been detected by real-time reverse transcription-PCR, as described in “Materials and methods”. d–h MCF-7 cells were grown in 10 cm dishes. Confluent cultures (80%) were shifted to PRF for 24 h and then treated with indicated compounds at a concentration of 10^−7 M or left untreated in PRF-CT for 2 h. ChIPs were carried out on serum starved MCF-7 cells as described in “Materials and methods”. Cells were lysed and proteins were precipitated using antibodies against AR (d), H3K4me3 (e), H3K9me3 (f), H3K9ac (g), H3K27ac (h) or rabbit IgG (2 μg/sample each). In control samples (Ig), normal rabbit IgG was used instead of the primary antibodies as control of antibody specificity. Inputs DNA were amplified as loading controls. Five regions of CCND1 promoter were examined by quantitative PCR analysis. The region containing the ARE site was detected by PCR with specific primers (p1-ARE) for antibodies of AR and H3K4me3. Specific primers P4 and p5 were used to investigate the changes in methylation or acetylation of H3K9.
MCF-7 cells were grown in 10 cm dishes. Confluent cultures (80%) were shifted to PRF for 24 h and then treated with various drugs at a concentration of 10^–7 M (as shown in Fig. 8) or left untreated in 5% PRF-CT for 2 h. Following treatment, ChIP assay was performed as described by Morelli et al. and using a simple Chip plus Sonication Chromatin IP kit (Cell Signaling Technology, #56383), following the manufacturer’s protocol. The cells were sonicated 10 times for 10 s at 20% of maximal power (Fisher Sonic Dismembrator) and then treated according to the protocol. Anti-AR (Cat. No. 5153), anti-H3K4me3 (Cat. No. 9751), anti-H3K9me3 (Cat. No. 13969), anti-H3K9ace (Cat. No. 9649), anti-H3K27ace (Cat. No. 8173) or rabbit IgG (Cat. No. 3900) of Cell Signaling Technology antibody were used to precipitate chromatin fragments from cell extracts. We used real-time quantitative PCR (SYBR green) to amplify the DNA fragment in the antibody precipitated DNA and the unprecipitated input DNA to calculate ΔCT values. A specific primer pair was used to amplify 134 bp of the ARE-containing cyclin D1 promoter fragment. For the histone modification antibody, another four pairs of prime locating at 1000 to −2000 bp region from the transcription initiation site of CCND1 were used besides the prime containing ARE. The RQ values (RQ = 2^–ΔCT) are presented and reflect the precipitated DNA as a percentage of the input DNA.

MCF-7 cells (AR siRNA) = assay: Proliferation of MCF-7 cells after AR downregulation by siRNA; settings: 100 nM, 72 h
Protocol: Cells were cultured and treated as described in the legend of Fig. 2. […] Cell growth is expressed as the ratio of the number of cells in the experimental well to that in control wells (untreated cells). The columns represent the mean of three experiments, each with five replicates; bars, SEM. *P ≤ 0.05, **P ≤ 0.01 vs. control
AR siRNA and its control siRNA used in this study were described by Wu et al.. The sequence of the AR siRNA used was 5′-[…]-3′ and a nonspecific siRNA duplex was used as a negative control. Growing cells were switched to PRF for 24 h and then switched to 10% PRF–CT medium containing 1 nM E2 for 48 h. MCF-7 cells were trypsinized and transfected in suspension with 2.5 μg siRNA (siAR or scrambled siRNA) or pcDNA3.1-AR in six-well plates, using Lipofectamine 3000 (Invitrogen) in OPTI-MEM medium (Gibco), following the manufacturer’s instructions.

SMILES | proliferation of MCF-7 cells (MCF-7 cells) | antiproliferative effect in presence of OH-Flutamide, MCF-7 (MCF-7 cells) | proliferation of ZR-75-1 cells (ZR-75-1 cells) | antiproliferative effect in presence of OH-Flutamide, ZR-75-1 (ZR-75-1 cells) | AR binding to ARE site of CCND1-promoter [1] | inhibition of proliferation after AR downregulation (MCF-7 cells (AR siRNA)) | H3K4me3 at CCND1 promoter, relative to untreated control cells [1] [%] | H3K9ac at CCND1 promoter [1] | H3K9me3 at CCND1 promoter [1] | H3K27ac at CCND1 promoter [1]
C[C@]12CCC(=O)C[C@@H]1CC[C@@H]1[C@@H]2CC[C@]2(C)[C@@H](O)CC[C@@H]12 [DHT, dihydrotestosterone] | inhibits the proliferation of MCF-7 and ZR-75-1 cells at all tested concentrations | almost completely abolished | inhibits the proliferation of MCF-7 and ZR-75-1 cells at all tested concentrations | almost completely abolished | strong increase | AR downregulation diminishes the ability | – | – | – | –
C[C@]12CC[C@H]3[C@@H](CCC4=C(O)C(=O)CC[C@@]43C)[C@@H]1CC[C@@H]2O [4-OHT, 4-hydroxytestosterone] | strongly antiproliferative | behave like DHT | inhibits the proliferation of ZR-75-1 cells only at micromolar concentrations | behave like DHT | almost as strong as that of DHT | identical results | < 20 | decreased | increased | unchanged
C=C1C[C@H]2[C@@H]3CC[C@H](O)[C@@]3(C)CC[C@@H]2[C@@]2(C)C=CC(=O)C=C12 [17-HEXE, 17-hydroexemestane] | – | behave like DHT | – | behave like DHT | almost as strong as that of DHT | identical results | < 20 | decreased | increased | unchanged
